Measured values reported in ChEMBL document CHEMBL6109153, “Development of Membrane-Targeting Osthole Derivatives Containing Pyridinium Quaternary Ammonium Moieties with Potent Anti-Methicillin-Resistant Staphylococcus aureus Properties” (J Med Chem, 2025).
Calls of active or inactive are those of the source. No cut-off for these calls is given here.

Assays:
Staphylococcus aureus [1] = assay: Antibacterial activity against methicillin-resistant Staphylococcus aureus M11 up to 128 ug/ml in presence of peptidoglycan incubated for 16 to 18 hrs; assay type: functional, organism-based; conditions: dose <= 128.0 µg/ml, time 16-18 hrs
Staphylococcus aureus [2] = assay: Antibacterial activity against methicillin-resistant Staphylococcus aureus M11 infected in BALB/c mouse model of Sepsis assessed as restoration of smoothness in outer skin at 8 mg/kg measured after 24 hrs; assay type: functional, organism-based
Staphylococcus aureus [3] = assay: Antibacterial activity against methicillin-resistant Staphylococcus aureus M11 infected in BALB/c mouse model of Sepsis assessed as reduction in redness in inner epidermal abscesses at 4 mg/kg measured after 24 hrs; assay type: functional, organism-based
[4] = Toxicity in BALB/c mouse model of Sepsis infected with methicillin-resistant Staphylococcus aureus M11 assessed as pathological change in heart at 4 to 8 mg/kg measured after 24 hrs by H and E staining based analysis; assay type: organism-based; conditions: in vivo, dose 4-8 mg/kg
Staphylococcus aureus [5] = assay: Antibacterial activity against methicillin-resistant Staphylococcus aureus M11 upto 128 ug/ml in presence of phosphatidylethanolamine incubated for 16 to 18 hrs; assay type: functional, organism-based; conditions: dose <= 128.0 µg/ml, time 16-18 hrs
Staphylococcus aureus [6] = assay: Disruption of cell membrane in methicillin-resistant Staphylococcus aureus M11 assessed as wrinkling in cell membrane at 4 ug/ml incubated for 4 hrs by SEM analysis; assay type: functional, organism-based; conditions: dose 4.0 µg/ml
Staphylococcus aureus [7] = assay: Induction of cell permeability in methicillin-resistant Staphylococcus aureus M11 assessed as fold increase in fluorescence intensity at 32 times MIC by SYTOX Green dye based analysis relative to control; assay type: functional
[8] = Toxicity in BALB/c mouse model of Sepsis infected with methicillin-resistant Staphylococcus aureus M11 assessed as lesions in kidney at 4 to 8 mg/kg measured after 24 hrs by H and E staining based analysis; assay type: organism-based; conditions: in vivo, dose 4-8 mg/kg
[9] = Cytotoxicity against human L02 cells assessed as cell survival rate at 32 times MIC incubated for 24 hrs by CCK8 assay; assay type: toxicity, cell-based; conditions: read-out: Survival
Staphylococcus aureus [10] = assay: Antibacterial activity against methicillin-resistant Staphylococcus aureus M11 incubated for 16 to 20 hrs by broth microdilution method; assay type: functional; conditions: time 16-20 hrs
[11] = Toxicity in BALB/c mouse model of Sepsis infected with methicillin-resistant Staphylococcus aureus M11 assessed as pathological change in kidney at 4 to 8 mg/kg measured after 24 hrs by H and E staining based analysis; assay type: organism-based; conditions: in vivo, dose 4-8 mg/kg
Staphylococcus aureus [12] = assay: Antibacterial activity against methicillin-resistant Staphylococcus aureus M11 infected in BALB/c mouse model of Sepsis assessed as reduction in bacterial count in skin tissues at 8 mg/kg measured after 24 hrs relative to control; assay type: functional; parameters: scale not given: the % may be the effect or the level left
Staphylococcus aureus [13] = assay: Disruption of cell membrane in methicillin-resistant Staphylococcus aureus M11 assessed as shrinkage in cell membrane at 4 ug/ml incubated for 4 hrs by SEM analysis; assay type: functional, organism-based; conditions: dose 4.0 µg/ml
Staphylococcus aureus [14] = assay: Antibacterial activity against methicillin-resistant Staphylococcus aureus M11 infected in BALB/c mouse model of Sepsis assessed as smooth in inner epidermis at 8 mg/kg measured after 24 hrs; assay type: functional, organism-based
Staphylococcus aureus [15] = assay: Antibacterial activity against methicillin-resistant Staphylococcus aureus M11 infected in BALB/c mouse model of Sepsis assessed as reduction in IL-6 level measured after 24 hrs; assay type: functional, organism-based; conditions: dose 4-8 mg/kg
[16] = Toxicity in BALB/c mouse model of Sepsis infected with methicillin-resistant Staphylococcus aureus M11 assessed as lesions in liver at 4 to 8 mg/kg measured after 24 hrs by H and E staining based analysis; assay type: organism-based; conditions: in vivo, dose 4-8 mg/kg
Staphylococcus aureus [17] = assay: Disruption of cell membrane in methicillin-resistant Staphylococcus aureus M11 assessed as cell membrane rupture at 4 ug/ml incubated for 4 hrs by SEM analysis; assay type: functional, organism-based; conditions: dose 4.0 µg/ml
Staphylococcus aureus [18] = assay: Disruption of cell membrane in methicillin-resistant Staphylococcus aureus M11 assessed as fold increase in DNA leakage at 4 ug/ml incubated for 4 hrs by micro-spectrophotometric analysis relative to control; assay type: functional; conditions: dose 4 µg/ml
Staphylococcus aureus [19] = assay: Bactericidal activity against methicillin-resistant Staphylococcus aureus M11 at 8 ug/ml measured up to 6 hrs in presence of 50% plasma; assay type: functional, organism-based; conditions: dose 8.0 µg/ml
Staphylococcus aureus [20] = assay: Antibacterial activity against methicillin-resistant Staphylococcus aureus M11 up to 128 ug/ml in presence of 32 ug/ml cardiolipin incubated for 16 to 18 hrs; assay type: functional; conditions: dose <= 128 µg/ml, time 16-18 hrs
Staphylococcus aureus [21] = assay: Depolarization of cell membrane in methicillin-resistant Staphylococcus aureus M11 assessed as increase in fluorescence intensity incubated for 30 mins by DiSC3(5) dye based analysis; assay type: functional, organism-based
Staphylococcus aureus [22] = assay: Antibacterial activity against methicillin-resistant Staphylococcus aureus M20 incubated for 16 to 20 hrs by broth microdilution method; assay type: functional; conditions: time 16-20 hrs
Staphylococcus aureus [23] = assay: Antibacterial activity against methicillin-resistant Staphylococcus aureus M21 incubated for 16 to 20 hrs by broth microdilution method; assay type: functional; conditions: time 16-20 hrs
Staphylococcus aureus [24] = assay: Antibacterial activity against methicillin-resistant Staphylococcus aureus M22 incubated for 16 to 20 hrs by broth microdilution method; assay type: functional; conditions: time 16-20 hrs
Staphylococcus aureus [25] = assay: Antibacterial activity against methicillin-resistant Staphylococcus aureus M12 incubated for 16 to 20 hrs by broth microdilution method; assay type: functional; conditions: time 16-20 hrs
[26] = Toxicity in BALB/c mouse assessed as maximum safe dose administered intraperitoneally measured for 7 days; conditions: in vivo, route ip, time 7 day
Staphylococcus aureus [27] = assay: Disruption of cell membrane in methicillin-resistant Staphylococcus aureus M11 assessed as roughness in cell membrane at 4 ug/ml incubated for 4 hrs by SEM analysis; assay type: functional, organism-based; conditions: dose 4.0 µg/ml
Staphylococcus aureus [28] = assay: Antibacterial activity against methicillin-resistant Staphylococcus aureus M11 infected in BALB/c mouse model of Sepsis assessed as reduction in swelling in inner epidermal abscesses at 4 mg/kg measured after 24 hrs; assay type: functional, organism-based
[29] = Toxicity in BALB/c mouse assessed as adverse reactions at 5 to 40 mg/kg, ip measured for 7 days; assay type: organism-based; conditions: in vivo, 168 h, dose 5-40 mg/kg, time 7 day
[30] = Toxicity in BALB/c mouse assessed as normal behavior at 5 to 40 mg/kg, ip measured for 7 days; assay type: organism-based; conditions: in vivo, 168 h, dose 5-40 mg/kg, time 7 day
Staphylococcus aureus [31] = assay: Antibacterial activity against methicillin-resistant Staphylococcus aureus M13 incubated for 16 to 20 hrs by broth microdilution method; assay type: functional; conditions: time 16-20 hrs
Staphylococcus aureus [32] = assay: Antibacterial activity against methicillin-resistant Staphylococcus aureus M11 infected in BALB/c mouse model of Sepsis assessed as reduction in inflammatory cell infiltration in skin tissues at 4 to 8 mg/kg measured after 24 hrs by H and E staining based analysis; assay type: functional, organism-based; conditions: dose 4-8 mg/kg
[33] = Toxicity in KM mouse assessed as animal death at 40 mg/kg, sc; assay type: organism-based; conditions: in vivo
Staphylococcus aureus [34] = assay: Antibacterial activity against methicillin-resistant Staphylococcus aureus M14 incubated for 16 to 20 hrs by broth microdilution method; assay type: functional; conditions: time 16-20 hrs
Staphylococcus aureus [35] = assay: Antibacterial activity against methicillin-resistant Staphylococcus aureus M11 assessed as fold increase in MIC up to 128 ug/ml in presence of 128 ug/ml peptidoglycan incubated for 16 to 18 hrs relative to control; assay type: functional; conditions: dose <= 128 µg/ml; time 16-18 hrs
Staphylococcus aureus [36] = assay: Antibacterial activity against methicillin-resistant Staphylococcus aureus M11 up to 128 ug/ml in presence of cardiolipin incubated for 16 to 18 hrs; assay type: functional, organism-based; conditions: dose <= 128.0 µg/ml, time 16-18 hrs
[37] = Toxicity in BALB/c mouse model of Sepsis infected with methicillin-resistant Staphylococcus aureus M11 assessed as lesions in heart at 4 to 8 mg/kg measured after 24 hrs by H and E staining based analysis; assay type: organism-based; conditions: in vivo, dose 4-8 mg/kg

Row | SMILES | Activity (Staphylococcus aureus [1]) | Activity (Staphylococcus aureus [2]) | Activity (Staphylococcus aureus [3]) | Activity [4] | Activity (Staphylococcus aureus [5]) | Activity (Staphylococcus aureus [6]) | fold change (FC) (Staphylococcus aureus [7]) | Activity [8] | viability at 24 h, 32 times MIC [9] [%] | MIC (Staphylococcus aureus [10]) [µg/mL] | Activity [11] | Activity (Staphylococcus aureus [12]) [%] | Activity (Staphylococcus aureus [13]) | Activity (Staphylococcus aureus [14]) | Activity (Staphylococcus aureus [15]) | Activity [16] | Activity (Staphylococcus aureus [17]) | fold change (FC) (Staphylococcus aureus [18]) | Activity (Staphylococcus aureus [19]) | MIC (Staphylococcus aureus [20]) [µg/mL] | further results
1 | CC(C)=CCc1c(OCCCCSc2cc[n+](CC(=O)N(CC(C)C)CC(C)C)cc2)ccc2ccc(=O)oc12.[Br-] | Active; Compound Showed Only Minor Or No Change In Mic | Active | Active | Non-toxic | Active; Compound Showed Only Minor Or No Change In Mic | Active | ~10 | Non-toxic | > 80 | 0.5 | Non-toxic | 99.994 | Active | Active | Dose-dependent-effect; Compound Has Slightly Greater Efficacy Than Vancomycin | Non-toxic | Active | ~2 | Active | 1 | Activity (Staphylococcus aureus [21]): Dose-dependent-effect; Activity Was Observed Higher Than Melittin; MIC (Staphylococcus aureus [22]): 0.5 µg/mL; MIC (Staphylococcus aureus [23]): 0.5 µg/mL; MIC (Staphylococcus aureus [24]): 0.5 µg/mL; MIC (Staphylococcus aureus [25]): 1 µg/mL; MTD at 168 h [26]: 30 mg/kg; Activity (Staphylococcus aureus [27]): Active; Activity (Staphylococcus aureus [28]): Active; Activity [29]: Non-toxic; Activity [30]: Non-toxic; MIC (Staphylococcus aureus [31]): 1 µg/mL; Activity (Staphylococcus aureus [32]): Active; Activity [33]: Non-toxic; MIC (Staphylococcus aureus [34]): 0.5 µg/mL; fold change (FC) (Staphylococcus aureus [35]): 32; Activity (Staphylococcus aureus [36]): Active; Compound Showed Only Minor Or No Change In Mic; Activity [37]: Non-toxic
2 | CCCCCNC(=O)C[n+]1ccc(SCCCCCOc2ccc3ccc(=O)oc3c2CC=C(C)C)cc1.[Br-] | Active; Compound Showed Only Minor Or No Change In Mic | Active | Active | Non-toxic | Active; Compound Showed Only Minor Or No Change In Mic | Active | ~10 | Non-toxic | > 80 | 0.5 | Non-toxic | 99.985 | Active | Active | Dose-dependent-effect; Compound Has Slightly Greater Efficacy Than Vancomycin | Non-toxic | Active | ~2 | Active | 1 | Activity (Staphylococcus aureus [21]): Dose-dependent-effect; Activity Was Observed Higher Than Melittin; MIC (Staphylococcus aureus [22]): 0.5 µg/mL; MIC (Staphylococcus aureus [23]): 0.5 µg/mL; MIC (Staphylococcus aureus [24]): 0.5 µg/mL; MIC (Staphylococcus aureus [25]): 1 µg/mL; MTD at 168 h [26]: 10 mg/kg; Activity (Staphylococcus aureus [27]): Active; Activity (Staphylococcus aureus [28]): Active; Activity [29]: Non-toxic; Activity [30]: Non-toxic; MIC (Staphylococcus aureus [31]): 1 µg/mL; Activity (Staphylococcus aureus [32]): Active; Activity [33]: Non-toxic; MIC (Staphylococcus aureus [34]): 0.5 µg/mL; fold change (FC) (Staphylococcus aureus [35]): 32; Activity (Staphylococcus aureus [36]): Active; Compound Showed Only Minor Or No Change In Mic; Activity [37]: Non-toxic
